± gives the expanded uncertainty stated by the source.
Experiments:
[1] = 101.33 kPa, Liquid, Vibrating tube method
[2] = refractive index (Na D-line) (dimensionless); settings: 101.33 kPa, Liquid, Standard Abbe refractometry

With CCC(C)CC [3-methylpentane] the mass density ([1]; 293.15 K) was 664.225 ± 0.17 kg/m3, the mass density ([1]; 295.15 K) was 662.39 ± 0.18 kg/m3 and the mass density ([1]; 297.15 K) was 660.589 ± 0.17 kg/m3. The mass density ([1]; 298.15 K) was 659.736 ± 0.18 kg/m3, the mass density ([1]; 298.6 K) was 659.308 ± 0.18 kg/m3 and the refractive index ([2]; 293.15 K) was 1.37654 ± 0.00041. The refractive index ([2]; 298.15 K) was 1.37387 ± 0.00041.

In the case of C=CCCCC [hex-1-ene], the mass density ([1]; 293.15 K) is reported as 673.227 ± 0.17 kg/m3, the mass density ([1]; 295.15 K) is reported as 670.871 ± 0.17 kg/m3 and the mass density ([1]; 297.15 K) is reported as 668.986 ± 0.17 kg/m3. For the same molecule, the mass density ([1]; 298.15 K) was 668.033 ± 0.17 kg/m3, the mass density ([1]; 301.35 K) was 664.998 ± 0.17 kg/m3 and the refractive index ([2]; 293.15 K) was 1.38796 ± 0.00041. For the same molecule, the refractive index ([2]; 298.15 K) was 1.3851 ± 0.00041.

— the NIST ThermoML archive (doi:10.1016/j.jct.2017.12.002)
